Data from article PMC10636063, “Progesterone activation of β1-containing BK channels involves two binding sites” (Nature Communications, 2023).
Where “and” joins values, the source holds several entries; their conditions need not be identical. Equal values may be shown once.

What was measured:
[1] = target: T1, BK β1 subunit (KCNMB1 product) (Rattus norvegicus, UniProt P97678); test: Thermal unfolding (microscale thermophoresis, Prometheus) of purified wt β1; format: binding; conditions: vs DMSO
T1 construct: FLAG (DYKDDDDK); made in house; host or cells: CHO cells, transient transfection, anti-flag immunoprecipitation
T1 sequence (P97678 1-191): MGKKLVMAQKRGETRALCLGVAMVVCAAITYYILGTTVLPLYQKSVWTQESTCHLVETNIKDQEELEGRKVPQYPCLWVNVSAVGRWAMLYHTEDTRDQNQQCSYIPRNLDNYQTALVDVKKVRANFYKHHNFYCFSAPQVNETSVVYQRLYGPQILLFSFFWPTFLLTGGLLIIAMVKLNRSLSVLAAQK
Source text: BK channel-forming slo1 cDNA (cbv1 isoform; AY330293) was cloned from rat cerebral artery SM cells, and inserted into pcDNA3.1 vector as described. BK β1 cDNA (KCNMB1 product; NP_011452; FJ154955) were isolated from rat cerebral artery SM cells and cloned as described. β4 cDNA (KCNMB4; NP_055320; AY028605) were generously provided by Dr. Ligia Toro. CHO cells were transiently transfected with cbv1 ± β1-, or β4-carrying pcDNA3.1 using X-tremeGENE HP (Sigma-Aldrich). Mutations to β1/4 cDNAs were conducted by Genscript, with sequences being confirmed to be >99% identical to KCNMB1 product; NP_011452 or β4 KCNMB4; NP_055320; respectively. β1/4 and mutant constructs were flag-tagged (DYKDDDDK-tag) by Genscript services for subsequent immunoprecipitation and use in microscale thermophoresis studies.
Wt β1, wt β4 and mutant constructs were purified by immunoprecipitation using Dynabeads Protein G Kit (10007D by Invitrogen) and following the manufacturer’s instructions. Rabbit polyclonal anti-flag antibody (10 µg; Abcam, Cat# ab205606, RRID:AB_2916341) was cross-linked with dynabeads. Transfected CHO cell lysate supernatant was divided into aliquots containing […] per column. Following precipitation, kit instructions for non-denaturing elutions were followed; one elution of 30 µl was collected for each column, and pH was adjusted to 7.5 using UltraPure 1 M Tris-HCI buffer pH 7.5 (cat# 15567027 by Fisher Scientific). PROG stock or vehicle control (DMSO) was added to the eluate to reach PROG final concentrations (0.004-40 µM), all dissolved within the same concentration of DMSO. Glass capillaries were prepared and loaded in triplicates into Prometheus (Nanotemper) and heated from 15° to 95 °C at a rate of 1°/min, the largest thermal scale available to run in the Nanotemper PR.therm-control software. The unfolding profile of a protein is a plot of its fluorescence signal against temperature. The protein is heated at a defined ramp over a specified temperature range. During the heating process, fluorescence is recorded at 330 and 350 nm. The resulting fluorescence ratio change is then analyzed for onset and inflection points. The temperature of onset and inflection is determined using built-in analysis function in Nanotemper PR.therm-control software. The onset of unfolding or aggregation is the temperature at which the channel conformation (unfolding or aggregation) process first starts. […] Onset and inflection points were validated by comparing the first-derivative variations between technical triplicates (high degrees of variations in the first derivative are shown in Supplementary Fig. 1b, c). CRC data obtained from microscale thermophoresis experiments were fitted to a Boltzmann function of the type: y=A1−A2/1+e^x−x0+A2 using Origin 2020 software (OriginLab; OriginLab Corporation).

[2] = system: de-endothelialized, pressurized MCA segments (C57BL/6); test: Cerebral artery diameter in vitro, de-endothelialized pressurized MCA segments; set-up: species or system mouse
Source text: Eight-12 week-old C57BL/6J and KCNMB1^−/− on C57BL/6 background mice of both sexes were deeply anesthetized with isoflurane via inhalation in a tightly sealed jar. Resistance size MCAs (~100 μm in external diameter) were dissected out of the mouse brains after animal euthanasia with sharp scissors. For de-endothelialized records, the endothelium was removed by passing an air bubble into the vessel lumen for 90 s[30]. This method has been consistently used by our group and validated using endothelium-dependent versus endothelium-independent vasodilators[16],[26]. Arteries were cannulated as previously described by our group[26],[40]. MCAs were cut into 5 to 10 mm-long segments under a microscope (Nikon SMZ645). The segment was cannulated at each end, and the artery exterior was continuously perfused with physiologic sodium saline (PSS) of the following composition (mM): 119 NaCl, 4.7 KCl, 1.2 KH2PO4, 1.6 CaCl2, 1.2 MgSO4, 0.023 EDTA, 11 glucose, 24 NaHCO3, pH=7.4. PSS was continuously bubbled with an O2/CO2/N2 (21/5/74%) gas mixture and maintained at 35–37 °C. The artery external wall diameter was measured using the automatic edge-detection function of lonWizard software (lonOptix) via Sanyo VCB-3512T camera (Sanyo Electric Co.). Arteries were first incubated at an intravascular pressure of 10 mm Hg for 10 min. Then intravascular pressure was increased to 60 mmHg and held steady throughout the experiment to induce myogenic tone development and maintenance[19],[30],[51]. Each artery segment was exposed to PROG, PROG-oxime (in presence and absence of 1 µM paxilline) only once to avoid development of desensitization during repeated applications of PROG-containing solution. To determine arterial viability, arterial contractility was probed with a high KCl solution at the end of each experiment. The high KCl solution was composed of the following composition (mM): 63.7 NaCl, 60 KCl, 1.2 KH2PO4, 1.2 MgSO4, 0.023 EDTA, 11 glucose, 24 NaHCO3, 1.6 CaCl2, pH=7.4. Like PSS, the high-KCl solution was continuously bubbled with O2/CO2/N2 (21/5/74%) gas mixture and maintained at 35–37 °C.

[3] = system: pial arteries branching out of the MCA (C57BL/6J); test: Cerebral artery diameter through cranial window in vivo; set-up: species or system mouse; conditions: individual replicates
Protocol: Eight-12 week-old male and female C57BL/6J mice were anesthetized with a mixture of xylazine/ketamine (12/100 mg per kg) and kept anesthetized for the duration of the experiment with subsequent ketamine doses (50 mg/kg of weight) as needed. A catheter was inserted into the carotid artery so that the infusion went straight to the brain rather than towards the thoracic cavity. An area of the skull was cleared of tissue and thinned to expose the branching arteries originating from the MCA on the side the catheter was inserted, above the zygomatic arch, between the ear and eye of the skull[19],[34]. The exposed arteries branching out from the MCA were monitored using a Leica MC170 HD microscope with a mounted camera (Leica M125 C) connected to a computer monitor. Drugs were diluted to their final concentration in sodium saline (0.9% NaCl) and administered via catheter at 0.1 ml/25 g of weight. Cranial window images before and after drug administration were acquired every 60 seconds for subsequent analysis.

## CC(=O)C1CCC2C3CCC4=CC(=NOCC(=O)O)CCC4(C)C3CCC12C (stereo not shown) [PROG-oxime, progesterone 3-(O-carboxymethyl)oxime]
[1]
  effect on thermal unfolding / binding: actual binding to wt β1
[2]; 10 μM in the presence of 1 μM paxilline
  vasoactive response of MCA segments: MCA constriction that was preserved
[2]; 10 μM, male and female mice
  vasoactive response of MCA segments: failed to evoke MCA dilation
[3]; Fig 7C, time 0, male mice
  artery diameter, normalized to time 0: 1 (4×) and 1.00
[3]; Fig 7C, time 1, male mice
  artery diameter, normalized to time 0: 0.9683 and 1.00 and 1.045 and 1.037 and 1.174
[3]; Fig 7C, time 2, male mice
  artery diameter, normalized to time 0: 0.9748 and 0.99 and 1.075 and 1.065 and 0.9672
[3]; Fig 7C, time 3, male mice
  artery diameter, normalized to time 0: 0.9521 and 0.88 and 1.045 and 0.8398 and 1.066
[3]; Fig 7C, time 4, male mice
  artery diameter, normalized to time 0: 0.9683 and 0.84 and 0.9351 and 0.8169 and 0.9018
[3]; Fig 7C, time 5, male mice
  artery diameter, normalized to time 0: 1.008 and 1.01 and 1.026 and 0.9472 and 0.9098
[3]; Fig 7C, time 6, male mice
  artery diameter, normalized to time 0: 1.041 and 0.92 and 0.9494 and 0.9176 and 1.063
[3]; Fig 7C, time 7, male mice
  artery diameter, normalized to time 0: 0.9184 and 0.90 and 0.9635 and 0.9259 and 0.9935
[3]; Fig 7C, time 8, male mice
  artery diameter, normalized to time 0: 0.9894 and 0.92 and 0.9405 and 0.9778 and 0.9794
[3]; Fig 7C, time 9, male mice
  artery diameter, normalized to time 0: 0.8438 and 0.91 and 1.0031 and 0.973 and 0.9169
[3]; Fig 7D, time 0, female mice
  artery diameter, normalized to time 0: 1.00 and 1 (4×)
[3]; Fig 7D, time 1, female mice
  artery diameter, normalized to time 0: 0.90 and 1.017 and 1.077 and 0.9108 and 0.9562
[3]; Fig 7D, time 2, female mice
  artery diameter, normalized to time 0: 0.98 and 0.9692 and 1.08 and 1.015 (2×)
[3]; Fig 7D, time 3, female mice
  artery diameter, normalized to time 0: 0.96 and 0.8809 and 1.0998 and 0.9303 and 1.006
[3]; Fig 7D, time 4, female mice
  artery diameter, normalized to time 0: 0.71 and 0.9764 and 0.9876 and 0.9569 and 0.8502
[3]; Fig 7D, time 5, female mice
  artery diameter, normalized to time 0: 0.75 and 0.9574 and 1.009 and 0.7872 and 0.892
[3]; Fig 7D, time 6, female mice
  artery diameter, normalized to time 0: 0.76 and 0.8573 and 1.009 and 0.8606 and 0.8869
[3]; Fig 7D, time 7, female mice
  artery diameter, normalized to time 0: 0.82 and 0.8681 and 0.9667 and 0.8496 and 0.8082
[3]; Fig 7D, time 8, female mice
  artery diameter, normalized to time 0: 0.87 and 0.8872 and 1.0207 and 0.8807 and 0.7534
[3]; Fig 7D, time 9, female mice
  artery diameter, normalized to time 0: 0.74 and 0.8893 and 0.9136 and 0.9444 and 0.8332
[3]; Fig 7E, same values as Fig 7C time 7, male mice
  artery diameter, normalized (PROG vs oxime comparison): 0.8986
[3]; Fig 7F, same values as Fig 7D time 7, female mice
  artery diameter, normalized (PROG vs oxime comparison): 0.97 and 0.85 and 0.81
